# What was measured:
# [1] = pH 7
# [2] = tested on: Caco-2/HT-29MTX monolayers
# in vitro = details: human
# [3] = rat, in vivo; cited from earlier work
# [4] = cited from earlier work
Compound,"intestinal bioaccessibility, range of values [1]",FA (%) absorption category [2],toxicity / cell viability (MTT) (Caco-2/HT-29MTX cells),Papp (in vitro) [×10⁻⁶ cm/s],absorption within the intestinal tract [3],log Po/w [4]
"COc1cc2c(c3oc4cccc(O)c4c(=O)c13)[C@@H]1C=CO[C@@H]1O2 [STG, sterigmatocystin]",1.5-59.3%,High,not affecting cell viability,,,
"CC(C)[C@H]1C(=O)O[C@H](C(C)C)C(=O)N(C)[C@@H](C(C)C)C(=O)O[C@H](C(C)C)C(=O)N(C)[C@@H](C(C)C)C(=O)O[C@H](C(C)C)C(=O)N1C [ENNB, enniatin B]",0.6-98.2%,High,not affecting cell viability,91.6,,
aflatoxin B1 [AFB1],,,not affecting cell viability,,nearly total absorption,2.09
